Experimental data from patent US20240398805A1, “QUINAZOLINE DERIVED COMPOUNDS AS EGFR INHIBITORS AND THEIR USES THEREOF” (ACCUTAR BIOTECHNOLOGY INC., priority 2021, published 2024).

What was measured:
Format in all cases: cell-based
[1] = test system: HCC827 cells; test: Cell growth inhibition (CellTiter-Glo, 3 days) in HCC827; conditions: Homo sapiens, 72 h, 3 days after administration
Procedure: (§1) 2. Cell Growth Inhibition for HCC827, HCC827-SVD, HCC827-ASV, HCC827-YVMA and A431.
(§2) HCC827(ATCC), HCC827-SVD, HCC827-ASV, HCC827-YVMA were seeded in 96-well plates at 5000 cells/well in 90 μl of RPMI growth medium containing 10% FBS and 1% Penicillin Streptomycin. A431 (ATCC) cells were seed in 96-well plates at 5000 cells/well in 90 μl of DMEM growth medium containing 10% FBS and 1% Penicillin Streptomycin. Cells were incubated at 3700 overnight. The following day, the test compound was administered to the cells by using 1 Ox compound stock solution prepared in growth medium at various concentrations. After administration of the compound, cells were then incubated at 3700 for 3 days. Before CeIlTiter-Glo assay, the plates were equilibrated at room temperature for approximately 10 minutes. 100 ul of CelTiter-Glo® Reagent (Promega) was added to each well. The plates were then incubated at room temperature for 10 minutes and luminescence was recorded by EnSpire plate reader (PerkinElmer).

[2] = test system: HCC827-SVD cells (human EGFR exon 20 insertion mutant D770_N771 insSVD); test: Cell growth inhibition (CellTiter-Glo, 3 days) in HCC827-SVD; conditions: 72 h, 3 days after administration
Procedure: (§3) 1. Preparation of HCC827-SVD, HCC827-ASV and HCC827-YVMA Cell Lines
HCC827-SVD cell line were generated by first transducing HCC827 cells (ATCC) with lentiviral particles expressing codon-optimized human EGFR exon 20 insertion mutant D770_N771 insSVD, and then selecting under 5 μg/ml purimycin treatment for a week.
The resulting cells were further transduced with lentiviral particles carrying EGFR sgRNA and CAS9 to knockout the endogenous alleles of EGFR, and then selected under 500 μg/ml hygromycin B treatment for two weeks. Single clone was subsequently generated by limiting dilution approach. Endogenous EGFR knockout was confirmed by Sanger sequencing of cell genomic DNA and expression of exogenous mutant EGFR was verified by Western blot analysis.
as §1, §2

[3] = test system: HCC827-ASV cells (human EGFR exon 20 insertion mutant A769_D770insASV); test: Cell growth inhibition (CellTiter-Glo, 3 days) in HCC827-ASV; conditions: 72 h, 3 days after administration
Source text: as §3
(§4) HCC827-ASV and HCC827-YVMA cell lines were generated in the similar approach as HCC827-SVD except that HCC827 cells (ATCC) were first transduced with lentiviral particles expressing codon-optimized human EGFR exon 20 insertion mutant A769_D770insASV and human ERBB2 exon20 insertion mutant A775_G776ins YVMA, respectively.
as §1, §2

[4] = test system: HCC827-YVMA cells (human ERBB2 exon20 insertion mutant A775_G776ins YVMA); test: Cell growth inhibition (CellTiter-Glo, 3 days) in HCC827-YVMA; conditions: 72 h, 3 days after administration
Source text: as §3, §4, §1, §2

[5] = test system: A431 cells; test: Cell growth inhibition (CellTiter-Glo, 3 days) in A431; conditions: Homo sapiens, A-431, 72 h, 3 days after administration
Procedure: as §1, §2

Row | Compound | GI50 [1] [µM] | GI50 [2] [µM] | GI50 [3] [µM] | GI50 [4] [µM] | GI50 [5] [µM]
1 | C=CC(=O)N1CCC(Oc2cc3c(Nc4ccc(Oc5ccnc(N6C[C@@H](C)N(C)[C@@H](C)C6)c5)cc4F)ncnc3cc2OC)CC1 [Example 156, 1-(4-((4-((2-fluoro-4-((2-((3R,5S)-3,4,5-trimethylpiperazin-1-yl)pyridin-4-yl)oxy)phenyl)amino)-7-methoxyquinazolin-6-yl)oxy)piperidin-1-yl)prop-2-en-1-one] | ≥ 1 | 0.1 to 0.3 | 0.1 to 0.3 | 0.1 to 0.3 | ≥ 1
2 | C=CC(=O)N1CCC(Nc2cc3c(Nc4ccc(Oc5ccnc(N6CC(O)C6)c5)cc4F)ncnc3cc2OC)CC1 [Example 139, 1-(4-((4-((2-fluoro-4-((2-(3-hydroxyazetidin-1-yl)pyridin-4-yl)oxy)phenyl)amino)-7-methoxyquinazolin-6-yl)amino)piperidin-1-yl)prop-2-en-1-one] | 0.1 to 0.3 | 0.1 to 0.3 | 0.06 to 0.1 | 0.1 to 0.3 | 0.3 to 0.6
3 | C=CC(=O)N1CCC(Nc2cc3c(Nc4ccc(Oc5ccnc(N6CC[C@H](F)C6)c5)cc4F)ncnc3cc2OC)CC1 [Example 196, (S)-1-(4-((4-((2-fluoro-4-((2-(3-fluoropyrrolidin-1-yl)pyridin-4-yl)oxy)phenyl)amino)-7-methoxyquinazolin-6-yl)amino)piperidin-1-yl)prop-2-en-1-one] | 0.06 to 0.1 | < 0.03 | < 0.03 | < 0.03 | 0.1 to 0.3
4 | C=CC(=O)N1CCC(Nc2cc3c(Nc4ccc(Oc5ccnc(N6CC(N(C)C)C6)c5)cc4F)ncnc3cc2OC)CC1 [Example 147, 1-(4-((4-((4-((2-(3-(dimethylamino)azetidin-1-yl)pyridin-4-yl)oxy)-2-fluorophenyl)amino)-7-methoxyquinazolin-6-yl)amino)piperidin-1-yl)prop-2-en-1-one] | 0.1 to 0.3 | 0.06 to 0.1 | 0.06 to 0.1 | 0.06 to 0.1 | ≥ 1
5 | C=CC(=O)N1CCC(Nc2cc3c(Nc4ccc(Oc5ccn(-c6cnc(C)c(F)c6)n5)c(Cl)c4)ncnc3cc2OC)CC1 [Example 20, 1-(4-((4-((3-chloro-4-((1-(5-fluoro-6-methylpyridin-3-yl)-1H-pyrazol-3-yl)oxy)phenyl)amino)-7-methoxyquinazolin-6-yl)amino)piperidin-1-yl)prop-2-en-1-one] | 0.03 to 0.06 | 0.1 to 0.3 | 0.06 to 0.1 | 0.1 to 0.3 | 0.1 to 0.3
6 | C=CC(=O)N1CCC(Nc2cc3c(Nc4ccc(Oc5ccnc(N6CCCC(C#N)C6)c5)cc4F)ncnc3cc2OC)CC1 (stereo not shown) [Example 221, 1-(4-(4-((6-((1-acryloylpiperidin-4-yl)amino)-7-methoxyquinazolin-4-yl)amino)-3-fluorophenoxy)pyridin-2-yl)piperidine-3-carbonitrile] | 0.1 to 0.3 | < 0.03 | < 0.03 | < 0.03 | 0.1 to 0.3
7 | C=CC(=O)N1CCC(Nc2cc3c(Nc4ccc(Oc5ccnc(N6CCC[C@H]6C)c5)cc4F)ncnc3cc2OC)CC1 [Example 249, (R)-1-(4-((4-((2-fluoro-4-((2-(2-methylpyrrolidin-1-yl)pyridin-4-yl)oxy)phenyl)amino)-7-methoxyquinazolin-6-yl)amino)piperidin-1-yl)prop-2-en-1-one] | 0.1 to 0.3 | 0.03 to 0.06 | 0.06 to 0.1 | 0.06 to 0.1 | 0.6 to 1
8 | C=CC(=O)N1CCC(Oc2cc3c(Nc4ccc(Oc5ccnc(N6C[C@H](OC)[C@H](OC)C6)c5)cc4F)ncnc3cc2OC)CC1 [Example 163, 1-(4-((4-((4-((2-((3R,4S)-3,4-dimethoxypyrrolidin-1-yl)pyridin-4-yl)oxy)-2-fluorophenyl)amino)-7-methoxyquinazolin-6-yl)oxy)piperidin-1-yl)prop-2-en-1-one] | ≥ 1 | 0.03 to 0.06 | 0.03 to 0.06 | 0.1 to 0.3 | ≥ 1
9 | C=CC(=O)N1CCC(Nc2cc3c(Nc4ccc(Oc5ccnc(N6C[C@@H]7OCCO[C@@H]7C6)c5)cc4F)ncnc3cc2OC)CC1 [Example 254, 1-(4-((4-((2-fluoro-4-((2-((4aR,7aS)-hexahydro-6H-[1,4]dioxino[2,3-c]pyrrol-6-yl)pyridin-4-yl)oxy)phenyl)amino)-7-methoxyquinazolin-6-yl)amino)piperidin-1-yl)prop-2-en-1-one] | 0.06 to 0.1 | < 0.03 | < 0.03 | < 0.03 | ≥ 1
10 | C=CC(=O)N1CCC(Nc2cc3c(Nc4ccc(Oc5ccnc(-c6ccccc6)c5)cc4F)ncnc3cc2OC)CC1 [Compound 233, 1-(4-((4-((2-fluoro-4-((2-phenylpyridin-4-yl)oxy)phenyl)amino)-7-methoxyquinazolin-6-yl)amino)piperidin-1-yl)prop-2-en-1-one] | 0.06 to 0.1 | 0.03 to 0.06 | < 0.03 | < 0.03 | ≥ 1
11 | C=CC(=O)N1CCC(Nc2cc3c(Nc4ccc(Oc5ccnc(N6C[C@H]7COC[C@H]7C6)c5)cc4F)ncnc3cc2OC)CC1 [Example 190, 1-(4-((4-((2-fluoro-4-((2-((3aR,6aS)-tetrahydro-1H-furo[3,4-c]pyrrol-5(3H)-yl)pyridin-4-yl)oxy)phenyl)amino)-7-methoxyquinazolin-6-yl)amino)piperidin-1-yl)prop-2-en-1-one] | 0.03 to 0.06 | < 0.03 | < 0.03 | < 0.03 | 0.3 to 0.6
12 | C=CC(=O)N1CCC(Nc2cc3c(Nc4ccc(Oc5cc(-c6nc(C)no6)ccn5)cc4F)ncnc3cc2OC)CC1 [Compound 44, 1-(4-((4-((2-fluoro-4-((4-(3-methyl-1,2,4-oxadiazol-5-yl)pyridin-2-yl)oxy)phenyl)amino)-7-methoxyquinazolin-6-yl)amino)piperidin-1-yl)prop-2-en-1-one] | 0.03 to 0.06 | 0.03 to 0.06 | 0.03 to 0.06 | < 0.03 | 0.1 to 0.3
13 | C=CC(=O)N1CCC(Nc2cc3c(Nc4ccc(Oc5ccnc(N6CCC(C#N)C6)c5)cc4F)ncnc3cc2OC)CC1 (stereo not shown) [Compound 151, 1-(4-(4-((6-((1-acryloylpiperidin-4-yl)amino)-7-methoxyquinazolin-4-yl)amino)-3-fluorophenoxy)pyridin-2-yl)pyrrolidine-3-carbonitrile] | 0.1 to 0.3 | < 0.03 | < 0.03 | < 0.03 | 0.6 to 1
14 | C=CC(=O)N1CCC(Nc2cc3c(Nc4ccc(Oc5ccn(-c6cnc(OC)nc6)n5)c(F)c4)ncnc3cc2OC)CC1 [Example 54, 1-(4-((4-((3-fluoro-4-((1-(2-methoxypyrimidin-5-yl)-1H-pyrazol-3-yl)oxy)phenyl)amino)-7-methoxyquinazolin-6-yl)amino)piperidin-1-yl)prop-2-en-1-one] | < 0.03 | < 0.03 | < 0.03 | < 0.03 | 0.1 to 0.3
15 | C=CC(=O)N1CCC(Nc2cc3c(Nc4ccc(Oc5ccnc(N6CC(CC#N)C6)c5)cc4F)ncnc3cc2OC)CC1 [Example 208, 2-(1-(4-(4-((6-((1-acryloylpiperidin-4-yl)amino)-7-methoxyquinazolin-4-yl)amino)-3-fluorophenoxy)pyridin-2-yl)azetidin-3-yl)acetonitrile] | 0.1 to 0.3 | < 0.03 | < 0.03 | 0.03 to 0.06 | 0.6 to 1
16 | C=CC(=O)N1CCC(Nc2cc3c(Nc4ccc(Oc5ccnc(N6CCCN(C)CC6)c5)cc4F)ncnc3cc2OC)CC1 [Example 242, 1-(4-((4-((2-fluoro-4-((2-(4-methyl-1,4-diazepan-1-yl)pyridin-4-yl)oxy)phenyl)amino)-7-methoxyquinazolin-6-yl)amino)piperidin-1-yl)prop-2-en-1-one] | ≥ 1 | 0.1 to 0.3 | 0.1 to 0.3 | 0.1 to 0.3 | ≥ 1
17 | C=CC(=O)N1CCC(Nc2cc3c(Nc4ccc(Oc5ccnc(N6C[C@H]7C[C@@H]6CO7)c5)cc4F)ncnc3cc2OC)CC1 [Example 134, 1-(4-((4-((4-((2-((1R,4R)-2-oxa-5-azabicyclo[2.2.1]heptan-5-yl)pyridin-4-yl)oxy)-2-fluorophenyl)amino)-7-methoxyquinazolin-6-yl)amino)piperidin-1-yl)prop-2-en-1-one] | 0.1 to 0.3 | 0.03 to 0.06 | < 0.03 | 0.03 to 0.06 | 0.6 to 1
